Assay: Moisture uptake (adsorption/desorption vs relative humidity)
Assay type: physicochemical
Conditions: for Desorption (90-0% RH): moisture loss; for Adsorption (40-90% RH): moisture uptake
Description: The thermal properties, crystalline nature, apparent purity and moisture uptake of a 6.0 g batch of the free acid of compound (1) are summarized in Table 1.
Two broad endothermic peaks of the potassium salt of compound (1) were seen by DSC that can be associated with a dehydration event and melt/decomposition, respectively (Table 2).

Desorption (90-0% RH) [%] | Adsorption (40-90% RH) | Hygroscopicity (salt prepared by re-slurry methodology) | Structure (SMILES)
−0.96 | +0.59% |  | O=C(O)c1cnn(-c2nc3cc(Cl)c(Cl)cc3[nH]2)c1 [free acid of compound (1), 1-(5,6-Dichloro-1H-benzoimidazol-2-yl)-1H-pyrazole-4-carboxylic acid]
−0.89 | +0.53% | non-hygroscopic | O=C([O-])c1cnn(-c2nc3cc(Cl)c(Cl)cc3[nH]2)c1.[K+] [potassium salt of compound (1), potassium salt of 1-(5,6-dichloro-1H-benzoimidazol-2-yl)-1H-pyrazole-4-carboxylic acid]

Source: patent publication US10807969B2, “Meglumine salt formulations of 1-(5,6-dichloro-1h-benzo[d]imidazol-2-yl)-1h-pyrazole-4-carboxylic acid” (Janssen Pharmaceutica NV, priority 2011, dated 2020)
